Columns and labels:
Test in all cases: KinomeScan
Format in all cases: binding
Settings in all cases: 1 μM
CAMK2D = biological target: T1, CAMK2D (Homo sapiens, UniProt Q13557)
T1 construct: purchased DiscoverX (KINOMEscan)

DYRK2 = biological target: T2, DYRK2 (Homo sapiens, UniProt Q92630)
T2 sequence (Q92630 1-601): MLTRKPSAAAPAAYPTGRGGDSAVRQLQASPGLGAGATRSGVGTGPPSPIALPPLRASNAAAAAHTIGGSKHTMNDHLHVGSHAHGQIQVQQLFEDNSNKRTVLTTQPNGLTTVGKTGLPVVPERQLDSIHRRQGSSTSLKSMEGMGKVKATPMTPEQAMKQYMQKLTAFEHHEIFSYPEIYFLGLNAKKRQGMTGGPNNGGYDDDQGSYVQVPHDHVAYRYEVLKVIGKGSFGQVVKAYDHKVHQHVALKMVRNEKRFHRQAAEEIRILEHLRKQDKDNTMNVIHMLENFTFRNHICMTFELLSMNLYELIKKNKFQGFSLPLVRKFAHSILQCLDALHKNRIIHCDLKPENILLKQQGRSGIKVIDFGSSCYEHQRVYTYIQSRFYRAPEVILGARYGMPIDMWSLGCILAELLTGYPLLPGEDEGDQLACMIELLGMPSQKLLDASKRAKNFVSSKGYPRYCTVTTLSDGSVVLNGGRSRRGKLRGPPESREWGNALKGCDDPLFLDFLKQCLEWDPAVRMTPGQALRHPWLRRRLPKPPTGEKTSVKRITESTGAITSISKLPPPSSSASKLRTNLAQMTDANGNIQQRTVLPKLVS

EPHA7 = biological target: T3, EPHA7 (Homo sapiens, UniProt Q15375)
T3 construct: purchased DiscoverX (KINOMEscan)
T3 sequence (Q15375 28-998): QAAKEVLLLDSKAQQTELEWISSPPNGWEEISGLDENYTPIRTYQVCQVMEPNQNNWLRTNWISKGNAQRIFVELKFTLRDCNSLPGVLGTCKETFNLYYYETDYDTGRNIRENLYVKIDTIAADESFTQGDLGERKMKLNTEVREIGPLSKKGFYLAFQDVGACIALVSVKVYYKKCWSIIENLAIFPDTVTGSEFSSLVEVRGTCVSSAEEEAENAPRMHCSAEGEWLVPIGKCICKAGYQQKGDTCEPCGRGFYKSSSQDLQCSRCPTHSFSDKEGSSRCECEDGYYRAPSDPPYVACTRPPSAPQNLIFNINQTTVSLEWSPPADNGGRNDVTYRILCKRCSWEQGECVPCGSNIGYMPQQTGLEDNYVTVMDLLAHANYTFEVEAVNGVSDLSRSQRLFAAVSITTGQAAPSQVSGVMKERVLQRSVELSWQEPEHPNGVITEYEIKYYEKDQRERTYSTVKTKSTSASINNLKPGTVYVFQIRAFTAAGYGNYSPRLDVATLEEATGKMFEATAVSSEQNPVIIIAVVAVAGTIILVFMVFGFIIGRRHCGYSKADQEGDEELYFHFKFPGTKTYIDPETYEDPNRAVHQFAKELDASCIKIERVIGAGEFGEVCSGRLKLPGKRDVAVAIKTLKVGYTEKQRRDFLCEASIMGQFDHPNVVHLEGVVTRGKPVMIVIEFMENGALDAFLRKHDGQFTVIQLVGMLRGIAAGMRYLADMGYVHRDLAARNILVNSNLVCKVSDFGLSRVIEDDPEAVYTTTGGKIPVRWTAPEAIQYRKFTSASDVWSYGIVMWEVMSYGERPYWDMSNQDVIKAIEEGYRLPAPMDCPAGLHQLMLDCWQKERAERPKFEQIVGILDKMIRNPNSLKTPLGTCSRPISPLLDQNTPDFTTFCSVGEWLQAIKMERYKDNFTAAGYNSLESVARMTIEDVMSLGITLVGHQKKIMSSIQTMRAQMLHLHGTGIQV

ERK5 = biological target: T4, ERK5 (Homo sapiens, UniProt Q13164)
T4 construct: purchased DiscoverX (KINOMEscan)
T4 sequence (Q13164 whole entry): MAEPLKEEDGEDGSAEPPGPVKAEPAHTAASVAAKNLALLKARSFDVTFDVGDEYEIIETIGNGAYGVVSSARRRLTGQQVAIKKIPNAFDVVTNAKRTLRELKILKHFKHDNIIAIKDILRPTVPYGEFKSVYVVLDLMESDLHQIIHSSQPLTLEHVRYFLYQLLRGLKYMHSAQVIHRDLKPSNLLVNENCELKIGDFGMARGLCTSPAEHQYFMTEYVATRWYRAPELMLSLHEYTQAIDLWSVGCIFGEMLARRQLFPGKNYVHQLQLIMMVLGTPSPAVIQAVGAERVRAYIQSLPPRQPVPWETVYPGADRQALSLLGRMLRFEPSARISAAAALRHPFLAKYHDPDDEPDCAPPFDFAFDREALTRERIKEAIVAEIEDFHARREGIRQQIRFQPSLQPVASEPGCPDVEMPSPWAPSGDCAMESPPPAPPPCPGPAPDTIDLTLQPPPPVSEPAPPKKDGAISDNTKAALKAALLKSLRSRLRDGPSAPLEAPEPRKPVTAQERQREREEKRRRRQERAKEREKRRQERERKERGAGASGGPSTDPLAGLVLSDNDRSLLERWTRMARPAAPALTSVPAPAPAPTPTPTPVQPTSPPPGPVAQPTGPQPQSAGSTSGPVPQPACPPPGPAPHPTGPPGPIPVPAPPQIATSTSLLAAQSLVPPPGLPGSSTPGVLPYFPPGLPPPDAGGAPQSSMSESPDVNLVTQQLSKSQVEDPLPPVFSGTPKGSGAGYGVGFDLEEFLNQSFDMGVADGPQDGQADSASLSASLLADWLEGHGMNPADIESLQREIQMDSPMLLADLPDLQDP

ERN1 = biological target: T5, ERN1 (Homo sapiens, UniProt O75460)
T5 construct: purchased DiscoverX (KINOMEscan)

FLT3(K663Q) = biological target: T6, FLT3(K663Q) (Homo sapiens, UniProt P36888, K663Q)
T6 construct: purchased DiscoverX (KINOMEscan)

IKK-alpha = biological target: T7, IKK-alpha (Homo sapiens, UniProt O15111)
T7 construct: purchased DiscoverX (KINOMEscan)
T7 sequence (O15111 whole entry): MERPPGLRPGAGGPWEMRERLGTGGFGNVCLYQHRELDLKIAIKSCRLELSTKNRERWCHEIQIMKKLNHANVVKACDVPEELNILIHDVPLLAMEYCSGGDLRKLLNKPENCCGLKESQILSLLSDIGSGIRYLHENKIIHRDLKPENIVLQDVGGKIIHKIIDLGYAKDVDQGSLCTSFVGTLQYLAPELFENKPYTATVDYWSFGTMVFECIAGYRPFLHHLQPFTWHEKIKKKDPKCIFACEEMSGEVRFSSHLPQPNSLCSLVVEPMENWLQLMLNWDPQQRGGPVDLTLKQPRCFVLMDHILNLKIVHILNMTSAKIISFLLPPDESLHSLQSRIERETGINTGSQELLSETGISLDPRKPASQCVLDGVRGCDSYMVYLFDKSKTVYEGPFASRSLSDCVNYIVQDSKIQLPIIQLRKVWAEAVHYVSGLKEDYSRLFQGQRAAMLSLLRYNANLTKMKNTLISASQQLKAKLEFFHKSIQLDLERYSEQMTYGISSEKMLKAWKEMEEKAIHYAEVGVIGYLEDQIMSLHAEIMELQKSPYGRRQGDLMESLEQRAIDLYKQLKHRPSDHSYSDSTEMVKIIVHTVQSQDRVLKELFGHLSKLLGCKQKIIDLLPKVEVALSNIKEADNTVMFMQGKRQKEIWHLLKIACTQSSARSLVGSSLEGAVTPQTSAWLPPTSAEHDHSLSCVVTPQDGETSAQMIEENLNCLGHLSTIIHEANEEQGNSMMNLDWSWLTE

IRAK4 = biological target: T8, IRAK4 (Homo sapiens, UniProt Q9NWZ3)
T8 construct: purchased DiscoverX (KINOMEscan)
T8 sequence (Q9NWZ3 whole entry): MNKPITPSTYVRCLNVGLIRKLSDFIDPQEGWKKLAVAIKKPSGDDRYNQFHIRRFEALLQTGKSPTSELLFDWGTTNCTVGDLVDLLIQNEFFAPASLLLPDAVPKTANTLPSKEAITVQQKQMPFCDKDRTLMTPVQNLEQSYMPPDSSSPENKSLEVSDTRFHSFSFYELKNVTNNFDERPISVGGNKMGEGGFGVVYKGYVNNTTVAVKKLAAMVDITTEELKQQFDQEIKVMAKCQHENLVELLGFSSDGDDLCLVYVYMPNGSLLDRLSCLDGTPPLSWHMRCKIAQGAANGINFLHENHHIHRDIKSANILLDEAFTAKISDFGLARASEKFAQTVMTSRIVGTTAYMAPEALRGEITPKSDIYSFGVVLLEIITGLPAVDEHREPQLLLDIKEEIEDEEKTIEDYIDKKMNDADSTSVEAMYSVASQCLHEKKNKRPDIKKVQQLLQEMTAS

LIMK2 = biological target: T9, LIMK2 (Homo sapiens, UniProt P53671)
T9 construct: purchased DiscoverX (KINOMEscan)
T9 sequence (P53671 whole entry): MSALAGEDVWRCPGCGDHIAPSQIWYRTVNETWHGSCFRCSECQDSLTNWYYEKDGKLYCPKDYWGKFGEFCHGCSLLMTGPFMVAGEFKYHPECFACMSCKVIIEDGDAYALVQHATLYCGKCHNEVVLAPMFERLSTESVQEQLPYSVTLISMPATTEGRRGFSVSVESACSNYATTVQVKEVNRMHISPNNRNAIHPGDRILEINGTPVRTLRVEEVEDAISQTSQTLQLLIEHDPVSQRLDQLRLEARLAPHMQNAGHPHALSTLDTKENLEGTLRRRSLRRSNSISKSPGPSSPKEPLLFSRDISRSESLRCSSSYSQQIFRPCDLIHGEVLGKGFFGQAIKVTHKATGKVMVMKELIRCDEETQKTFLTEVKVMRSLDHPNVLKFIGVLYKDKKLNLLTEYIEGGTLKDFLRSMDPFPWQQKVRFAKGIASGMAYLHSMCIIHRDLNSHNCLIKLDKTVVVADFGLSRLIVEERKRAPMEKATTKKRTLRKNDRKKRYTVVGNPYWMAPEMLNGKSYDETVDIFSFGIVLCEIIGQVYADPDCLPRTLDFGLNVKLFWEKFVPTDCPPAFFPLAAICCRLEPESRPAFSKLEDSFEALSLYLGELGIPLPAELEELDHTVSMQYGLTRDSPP

PIM2 = biological target: T10, PIM2 (Homo sapiens, UniProt Q9P1W9)
T10 construct: purchased DiscoveRx (KinomeScan, San Diego, CA, USA)
T10 sequence (Q9P1W9 whole entry): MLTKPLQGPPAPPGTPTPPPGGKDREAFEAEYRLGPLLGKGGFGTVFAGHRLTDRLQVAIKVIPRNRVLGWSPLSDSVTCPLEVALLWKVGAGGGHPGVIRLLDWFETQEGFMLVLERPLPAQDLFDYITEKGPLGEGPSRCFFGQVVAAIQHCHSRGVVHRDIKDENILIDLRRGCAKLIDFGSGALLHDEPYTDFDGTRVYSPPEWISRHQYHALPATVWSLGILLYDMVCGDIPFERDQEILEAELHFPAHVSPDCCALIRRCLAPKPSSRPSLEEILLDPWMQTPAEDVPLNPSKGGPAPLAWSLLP

TYRO3 = biological target: T11, TYRO3 (Homo sapiens, UniProt Q06418)
T11 construct: purchased DiscoverX (KINOMEscan)

T1 sequence (Q13557 whole entry): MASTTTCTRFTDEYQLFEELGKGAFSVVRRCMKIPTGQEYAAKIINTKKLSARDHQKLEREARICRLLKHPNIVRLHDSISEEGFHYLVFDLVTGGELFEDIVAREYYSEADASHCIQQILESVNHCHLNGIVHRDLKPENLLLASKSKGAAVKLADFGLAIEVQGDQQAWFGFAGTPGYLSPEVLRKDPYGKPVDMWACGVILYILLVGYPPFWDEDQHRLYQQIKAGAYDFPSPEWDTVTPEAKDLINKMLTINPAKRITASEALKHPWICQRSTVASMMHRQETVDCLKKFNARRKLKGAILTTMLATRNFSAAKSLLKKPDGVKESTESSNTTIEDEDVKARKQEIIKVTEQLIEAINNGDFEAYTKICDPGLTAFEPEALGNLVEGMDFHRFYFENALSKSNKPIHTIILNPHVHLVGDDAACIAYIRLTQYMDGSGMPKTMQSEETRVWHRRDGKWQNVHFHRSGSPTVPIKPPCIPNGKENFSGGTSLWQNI

COc1cc(/C=C2\N=C(N)NC2=O)ccc1O [Polyandrocarpamine A]
Score (CAMK2D): 100
Score (DYRK2): 24
Score (EPHA7): 100
Score (ERK5): 100
Score (ERN1): 100
Score (FLT3(K663Q)): 100
Score (IKK-alpha): 100
Score (IRAK4): 46
Score (LIMK2): 96
Score (PIM2): 21
Score (TYRO3): 100

— PMC5666424, “Marine-Derived 2-Aminoimidazolone Alkaloids. Leucettamine B-Related Polyandrocarpamines Inhibit Mammalian and Protozoan DYRK & CLK Kinases” (Marine Drugs, 2017)
